Entries after “also recorded” stand apart in the source; their conditions may differ. Starred links: 1 amine or outer side, 2 acyl side, 3 side chain; linkers in the order of their positions; H or OH if unused. Non-standard residues stand in square brackets, D forms with d. Residues, ends and D or L forms follow the SMILES beside them. Groups on a side chain read outwards from the residue. *: point of attachment. Ethylenediamine = C(CN[*:2])N[*:1]; Hyp = O=C(O)[C@@H]1C[C@@H](O)CN1; Phg = N[C@H](C(=O)O)c1ccccc1; CO = O=C([*:1])[*:2]; Bn = c1ccc(C*)cc1

The conditions of data set [1]: SST14 and SST28; cited from earlier work.
In data set [2] the test system is patients with Cushing's syndrome. As to conditions: pasireotide monotherapy, patients with CD, cited from earlier work.
In data set [3] the test system is iPSC^USP48MV organoids. Kind of data set: ACTH secretion ELISA, iPSCUSP48 organoids. In kind it is cell-based, human. Particulars: FIG. 7G. The procedure: (§1) Sonic Hedgehog (SHH) was withdrawn from the organoid growth media 16 hours prior to treatment. The experimental treatment groups included: vehicle (Veh), mifepristone (500 nM, Selleckchem S2606), GANT61 (5 μM, Stemcell Technologies 73692), ketoconazole (Keto, 10 μM, Selleckchem S1353), pasireotide (Pas, 100 nM, Target Mol TP2207-SB001), octreotide (Oct, 100 nM, Selleckchem P1017), mifepristone plus GANT61, mifepristone plus Keto, mifepristone plus Pas, relacorilant (500 nM, Corcept Therapeutics CORT125134), relacorilant plus Pas, relacorilant plus Oct, or dexamethasone (Dexa, 100 nM, SIGMA S4902). In the combination treatments, cultures were pretreated with the GANT61, Keto, Pas or Oct for 2 hours prior to treatment with mifepristone or Rela. PitNET tissue derived organoids hPITO36, hPITO37, hPITO38, hPITO39, and hPITO40 were treated with the following experimental conditions: Vehicle (1), pasireotide (2), relacorilant (3), relacorilant & pasireotide (4), mifepristone (5), mifepristone & pasireotide (6). The IC50 values used for each hPITO line for each drug were determined based on dose responses (FIG. 12). All organoid cultures were treated for 48 hours prior to analysis.
(§2) Organoid conditioned media was collected and ACTH secretion using an ELISA according to the manufacturer's protocol (Novus Biologicals Human ACTH ELISA Kit NBP2-66401). The optical density was measured at a wavelength of 450 nm, and ACTH concentration (pg/mL) was interpolated using a standard curve with a 4-parameter logistic regression analysis using GraphPad Prism (v9.3.1).

In data set [4] the test system is iPSC^USP48MV organoids. Kind of data set: EdU uptake (proliferation) in iPSCUSP48MV organoids. In kind it is cell-based, human. As to conditions: 100 nM pretreatment 2 h before mifepristone. The procedure: (§3) iPSCs were stained for pituitary specific hormones including luteinizing hormone (LH), follicle-stimulating hormone (FSH), growth hormone (GH), prolactin (PRL), ACTH, cytokeratin 8/18 (CAM5.2), pituitary transcription factor PIT-1 and neuroendocrine marker Synaptophysin (Table 5). Cultures were immunostained for proliferation marker EdU (Click-IT EdU Alexa Fluor 555 Imaging Kit, Thermo Fisher Scientific C10338). Antibody dilutions were determined based on manufacturer guidelines and antibody titration (Table 5). Staining was conducted according to previously published protocols. Briefly, organoids and iPSCs grown in 8-well glass bottom chamber slides were fixed using 3.7% formaldehyde, washed with DPBS, permeabilized with 0.5% Triton X-100 (SIGMA X-100, PBS-T, 20 min at room temperature), washed with 0.01% PBS-T, and blocked with 2% donkey serum (Jackson Immuno Research 017-000-121) for 1 hour at room temperature. After blocking, primary antibodies were added and incubated overnight at 4° C. Slides were washed with 0.01% PBS-T and incubated with secondary antibodies (Table 5) with Hoechst (Thermo Fisher Scientific H1399) for 1 hour at room temperature. Organoids were washed and stored in PBS at 4° C. until microscopic analysis. High content confocal microscopy was performed using the Nikon Ti2-E Inverted Microscope (with a Crest X-Light V2 L-FOV Spinning Disk Confocal) at the University of Arizona Cancer Center, or a ZEISS LSM880 34 channel Laser Scanning Confocal Microscope at University of Arizona Marley Imaging Core. Fluorescence intensity was quantified as the percentage of marker-positive cells versus total cells, using Nikon Elements Software (Version 5.21.05). Proliferation for each iPSC line was quantified as the percentage of EdU-positive cells versus total cells.
as §1, with “PitNET tissue derived organoids hPITO36, hPITO37, hPITO38, hPITO39, and hPITO40 were treated with the following experimental conditions: Vehicle (1), pasireotide (2), relacorilant (3), relacorilant & pasireotide (4), mifepristone (5), mifepristone & pasireotide (6).” left out, “All organoid cultures were treated for 48 hours prior to analysis.” left out

Data set [5] has as its system ACTH. Kind of data set: Spectral flow cytometry, ACTH positive cells, hPITOs. The class given is cell-based, human. As to conditions: hPITO, pretreatment before mifepristone, FIGS. 9I, J. The text has this: 1.3 Generation and Culture of Human PitNET Tissue Organoids (hPITOs)
Patients undergoing planned transsphenoidal surgery for PitNETs were identified in the outpatient neuroendocrinology and neurosurgery clinics and collected by the St. Joseph's Hospital and Barrow Neurological Institute Biobank under the collection protocol PHXA-05TS038, and outcomes data protocol PHXA-0004-72-29 with approval of the Institutional Review Board (IRB) and patient consent. De-identified samples were shipped in collection and transport media (Table 3) to the Zavros laboratory (University of Arizona) for processing within 24 hours of collection. Resected PitNET tissues were washed with Dulbeccos Phosphate Buffered Saline (DPBS) supplemented with 1× Penicillin/Streptomycin, 1× Kanamycin and 1× Amphotericin/Gentamycin, minced into smaller pieces, and incubated with digestion buffer (Dulbecco's Modified Eagle Medium/Nutrient Mixture F-12 (DMEM/F12) supplemented with 0.4% Collagenase 2, 0.1% Hyaluronic Acid, 0.03% Trypsin). The tissue was incubated with Accutase (Thermo Fisher Scientific) for a further 5 minutes, and the cells were pelleted and washed with DPBS supplemented with antibiotics. Dissociated cells were then seeded as Matrigel™ domes in culture dishes and overlaid with growth media (Table 4). Media was replaced every 3 days and organoids were harvested for downstream experiments or passaged after 15 days of culture (FIG. 1B).
Sonic Hedgehog (SHH) was withdrawn from the organoid growth media 16 hours prior to treatment. […] The IC50 values used for each hPITO line for each drug were determined based on dose responses (FIG. 12). […]

The subject of data set [6] is SSTR5. Particulars: cited from earlier work.
Data set [7] deals with hPITO37. Kind of data set: Dose response of hPITO37. In kind it is cell-based, human. As to conditions: hPITO37, FIG. 12. The procedure: as §1
For data set [8], the system named is iPSC^ctrl organoids. Kind of data set: EdU uptake (proliferation) in iPSCctrl organoids. In kind it is cell-based, human. Particulars: 100 nM pretreatment 2 h before mifepristone. The method, then:
as §3
as §1, with “PitNET tissue derived organoids hPITO36, hPITO37, hPITO38, hPITO39, and hPITO40 were treated with the following experimental conditions: Vehicle (1), pasireotide (2), relacorilant (3), relacorilant & pasireotide (4), mifepristone (5), mifepristone & pasireotide (6).” left out, “All organoid cultures were treated for 48 hours prior to analysis.” left out

The test system of data set [9] is iPSC^ctrl organoids. Kind of data set: ACTH secretion ELISA, iPSCctrl organoids. The class given is cell-based, human. Particulars: FIG. 6G. The procedure: as §1, §2

Take SST: the half-life in [1] is less than 3 min.

Take `NCCCC[C@@H]1NC(=O)[C@@H](Cc2c[nH]c3ccccc23)NC(=O)[C@H](c2ccccc2)NC(=O)[C@@H]2C[C@@H](OC(=O)NCCN)CN2C(=O)[C@H](Cc2ccccc2)NC(=O)[C@H](Cc2ccc(OCc3ccccc3)cc2)NC1=O` [pasireotide] (cyclo([Hyp]([CO-Ethylenediamine])[Phg][dW]KY(Bn)F)): the “patients with normalized cortisol” value in [2] is on record as “up to 42%”. In addition, in data set [2] (two large prospective studies), the “patients with normalized urinary free cortisol” value is “up to 42%”. In addition, the “effect on ACTH secretion in response to mifepristone” value in data set [3] (iPSCUSP48, 100 nM pretreatment 2 h before mifepristone) was “significantly reduced ACTH secretion”; in data set [9] (100 nM pretreatment 2 h before mifepristone), “significantly reduced ACTH secretion”. Further, the “reduction of hormone (ACTH) secretion in combination with relacorilant” value is on record as “greater magnitude compared to that of octreotide plus relacorilant” in data set [3] (iPSCUSP48MV, with relacorilant) and “greater magnitude compared to that of octreotide plus relacorilant” in data set [9] (with relacorilant). The “effect on proliferative response to mifepristone (EdU uptake)” value in [4] and in data set [8] was “no effect” each time. Moreover, in data set [5], the “effect on mifepristone-induced increase of ACTH expressing cells” value is listed as “not inhibited”. Moreover, in data set [6], the “binding to / activation of SSTR5” value is on record as “high-affinity binding to SSTR5; also recorded: preferentially binds or activates somatostatin receptor type 5 (SSTR5)”. Besides, the “drug response (sensitivity)” value in [7] is reported as “insensitive”.
